Measurements taken from US11992473B2, “Compositions and methods for diagnosis and treatment of conditions related to the quality of aging and longevity” (Epitracker, Inc., priority 2018, dated 2024).

Key:
Format in all cases: cell-based, human
[1] = test system: Venular endothelial cells, peripheral blood mononuclear cells; test: BioMAP Diversity PLUS SAg system (T cell stimulation, Th1 type chronic inflammation); conditions: for T cell proliferation: concentrations ranging from 740 nm to 6.7 μM (FIG. 2); for Significant log10 reduction compared to nontreated controls: T cell proliferation / Significant log10 reduction compared to nontreated controls: CD40: SAg system
Method: (§1) This study examined activities of small molecules discovered in dolphin serum that had protective profiles against diseases of aging which can impact quality of life and longevity. These molecules were tested across 12 human primary cell-based systems as part of DiscoverX's BioMAP Diversity Plus program. These systems are designed to model complex human tissue and disease biology of the vasculature, skin, lung, and inflammatory tissues. Quantitative measurements of biomarker activities across this broad panel, along with comparative analysis of biological activities of known bioactive agents were used to predict and compare the efficacy and function of the four compounds. Compounds were tested at four concentrations (740 nm and 2.2, 6.7 and 20 μM).
(§2) BioMAP panels consist of human primary cell-based systems designed to model different aspects of the human body in an in vitro format. The 12 systems in the Diversity PLUS panel allow test agent characterization in an unbiased way across a broad set of systems modeling various human disease states. BioMAP systems are constructed with one or more primary cell types from healthy human donors, with stimuli (such as cytokines or growth factors) added to capture relevant signaling networks that naturally occur in human tissue or pathological conditions. Vascular biology is modeled in both a Th1 (3C system) and a Th2 (4H system) inflammatory environment, as well as in a Th1 inflammatory state specific to arterial smooth muscle cells (CASM3C system). Additional systems recapitulate aspects of the systemic immune response including monocyte-driven Th1 inflammation (LPS system) or T cell stimulation (SAg system), chronic Th1 inflammation driven by macrophage activation (lMphg system) and the T cell-dependent activation of B cells that occurs in germinal centers (BT system). The BE3C system (Th1) and the BF4T system (Th2) represent airway inflammation of the lung, while the MyoF system models myofibroblast-lung tissue remodeling. Lastly, skin biology is addressed in the KF3CT system modeling Th1 cutaneous inflammation and the HDF3CGF system modeling wound healing.
(§3) Each test agent generates a signature BioMAP profile that is created from the changes in protein biomarker readouts within individual system environments. Biomarker readouts (7-17 per system) are selected for therapeutic and biological relevance, are predictive for disease outcomes or specific drug effects and are validated using agents with known mechanism of action (MoA). Each readout is measured quantitatively by immune-based methods that detect protein (e.g., ELISA) or functional assays that measure proliferation and viability. BioMAP readouts are diverse and include cell surface receptors, cytokines, chemokines, matrix molecules and enzymes. In total, the Diversity PLUS panel contains 148 biomarker readouts that capture biological changes that occur within the physiological context of the particular BioMAP system. Specific BioMAP activities have been correlated to in vivo biology, and multiparameter BioMAP profiles have been used to distinguish compounds based on MoA and target selectivity across diverse physiological systems.
(§4) The Diversity PLUS panel allows test agent characterization in an unbiased way across a broad set of systems modeling various human disease states. These systems are designed to model complex human tissue and disease biology of the vasculature, skin, lung, and inflammatory tissues. Quantitative measurements of 148 biomarker activities across this broad panel, along with comparative analysis of biological activities from known bioactive agents, were used to predict and compare the efficacy and function of each selected compound at four concentrations (740 nm and 2.2, 6.7 and 20 μM). […]

[2] = test system: Peripheral blood mononuclear cells, B cells; test: BioMAP Diversity PLUS BT system (T cell dependent B cell activation); conditions: for interleukin 17A (IL-17A): human cell system mimicking asthma, autoimmunity and allergies (FIG. 5)
Method: as §1, §2
(§5) Each test agent generates a signature BioMAP profile that is created from the changes in protein biomarker readouts within individual system environments. Biomarker readouts (7-17 per system) are selected for therapeutic and biological relevance, are predictive for disease outcomes or specific drug effects and are validated using agents with known mechanism of action (MoA). Each readout is measured quantitatively by immune-based methods that detect protein (e.g., ELISA) or functional assays that measure proliferation and viability. BioMAP readouts are diverse and include cell surface receptors, cytokines, chemokines, matrix molecules and enzymes.
(§6) The Diversity PLUS panel allows test agent characterization in an unbiased way across a broad set of systems modeling various human disease states. These systems are designed to model complex human tissue and disease biology of the vasculature, skin, lung, and inflammatory tissues.
(§7) BioMAP systems are constructed with one or more primary cell types from healthy human donors, with stimuli (such as cytokines or growth factors) added to capture relevant signaling networks that naturally occur in human tissue or pathological conditions. Vascular biology is modeled in both a Th1 (3C system) and a Th2 (4H system) inflammatory environment, as well as in a Th1 inflammatory state specific to arterial smooth muscle cells (CASM3C system). Additional systems recapitulate aspects of the systemic immune response including monocyte-driven Th1 inflammation (LPS system) or T cell stimulation (SAg system), chronic Th1 inflammation driven by macrophage activation (lMphg system) and the T cell-dependent activation of B cells that occurs in germinal centers (BT system).

[3] = test system: Dermal fibroblasts; test: BioMAP Diversity PLUS HDF3CGF system (wound healing and matrix/tissue remodeling); conditions: for decorin: human cell system mimicking wound healing, remodeling, fibrosis and chronic inflammation (FIG. 7); for Significant log10 reduction compared to nontreated controls: Macrophage colony-stimulating factor (M-CSF): HDF3CGF system
Method: as §1, §2, §5, §6, §7

[4] = test system: Venular endothelial cells, peripheral blood mononuclear cells; test: BioMAP Diversity PLUS LPS system (Th1 type chronic inflammation, monocyte activation); conditions: for secretion of prostaglandin E2 (PGE2): human cell system mimicking T-cell and monocyte driven chronic inflammation and cardiovascular diseases (FIG. 4)
Method: as §1, §2, §5, §6, §7

[5] = test system: Lung fibroblasts; test: BioMAP Diversity PLUS MyoF system (myofibroblast differentiation and tissue remodeling)
Method: as §1, §2, §3, §4

[6] = test system: Bronchial epithelial cells; test: BioMAP Diversity PLUS BE3C system (Th1 type lung inflammation)
Method: as §1, §2, §3, §4

[7] = test system: Macrophages, venular endothelial cells; test: BioMAP Diversity PLUS lMphg system (Th1 type chronic inflammation, macrophage activation); conditions: /Mphg system; 20.0 μM
Method: as §1, §2, §3, §4

[8] = human cell system mimicking T-cell driven chronic inflammation and autoimmune diseases

Compound: O=C(O)[C@@H]1C[C@@H](O)CN1 (relative stereo) [Trans-4-hydroxyproline]
- T cell proliferation [1, 8]: decreased
- interleukin 17A (IL-17A) [2]: lowered
- decorin [3]: inhibitory activity

Compound: O=C(O)Cc1c[nH]cn1 [4-imidazoleacetate]
- Significant log10 reduction compared to nontreated controls: T cell proliferation ([1]; 2.2 μM): −0.11 log10
- Significant log10 reduction compared to nontreated controls: T cell proliferation ([1]; 6.7 μM): −0.09 log10
- Significant log10 reduction compared to nontreated controls: T cell proliferation ([1]; 20.0 μM): −0.09 log10
- T cell proliferation [1, 8]: decreased
- Significant log10 reduction compared to nontreated controls: Secreted interleukin 17F (IL-17F) ([2]; BT system, 0.7 μM): −0.16 log10

Compound: NCCCCC(=O)O [5-aminovalerate]
- Significant log10 reduction compared to nontreated controls: Secreted prostaglandin E2 (PGE2) ([4]; LPS system, 6.7 μM): −0.10 log10
- secretion of prostaglandin E2 (PGE2) [4]: lowered
- Significant log10 reduction compared to nontreated controls: T cell proliferation ([1]; 0.7 μM): −0.7 log10
- Significant log10 reduction compared to nontreated controls: T cell proliferation ([1]; 2.2 μM): −0.12 log10
- Significant log10 reduction compared to nontreated controls: T cell proliferation ([1]; 6.7 μM): −0.14 log10
- T cell proliferation [1, 8]: decreased
- Significant log10 reduction compared to nontreated controls: Tumor necrosis factor alpha (TNFα) ([2]; BT system, 6.7 μM): −0.11 log10
- decorin [3]: inhibitory activity
- Significant log10 reduction compared to nontreated controls: Decorin ([5]; 6.7 μM): −0.07 log10
- Significant log10 reduction compared to nontreated controls: Decorin ([5]; 20.0 μM): −0.10 log10

Compound: C=CCCCCCCCCC(=O)O [10-undecanoate (C11:1n1), 10-undecanoate]
- Significant log10 reduction compared to nontreated controls: Secreted prostaglandin E2 (PGE2) ([4]; LPS system, 0.7 μM): −0.11 log10
- Significant log10 reduction compared to nontreated controls: Secreted prostaglandin E2 (PGE2) ([4]; LPS system, 2.2 μM): −0.08 log10
- Significant log10 reduction compared to nontreated controls: Secreted prostaglandin E2 (PGE2) ([4]; LPS system, 6.7 μM): −0.20 log10
- Significant log10 reduction compared to nontreated controls: CD40 ([4]; LPS system, 20.0 μM): −0.11 log10
- secretion of prostaglandin E2 (PGE2) [4]: lowered
- Significant log10 reduction compared to nontreated controls: CD40 ([1]; 0.7 μM): −0.07 log10
- Significant log10 reduction compared to nontreated controls: CD40 ([1]; 2.2 μM): −0.14 log10
- Significant log10 reduction compared to nontreated controls: CD40 ([1]; 6.7 μM): −0.09 log10
- CD40 ([1]; human cell system mimicking T-cell driven chronic inflammation and autoimmune diseases, 740 nm, 2.2 μM, and 6.7 μM (FIG. 3)): lowered
- T cell proliferation [1, 8]: decreased
- Significant log10 reduction compared to nontreated controls: Secreted interleukin 17A (IL-17A) ([2]; BT system, 2.2 μM): −0.25 log10
- Significant log10 reduction compared to nontreated controls: Secreted interleukin 17A (IL-17A) ([2]; BT system, 20.0 μM): −0.20 log10
- Significant log10 reduction compared to nontreated controls: Secreted tumor necrosis factor alpha (TNFα) ([2]; BT system, 20.0 μM): −0.12 log10
- interleukin 17A (IL-17A) [2]: lowered
- Significant log10 reduction compared to nontreated controls: Tissue plasminogen activator (tPA) ([6]; 2.2 μM): −0.08 log10
- Significant log10 reduction compared to nontreated controls: Tissue plasminogen activator (tPA) ([6]; 6.7 μM): −0.11 log10
- Significant log10 reduction compared to nontreated controls: Tissue plasminogen activator (tPA) ([6]; 20.0 μM): −0.12 log10
- Significant log10 reduction compared to nontreated controls: Macrophage colony-stimulating factor (M-CSF) ([3]; 0.7 μM): −0.11 log10
- Significant log10 reduction compared to nontreated controls: Macrophage colony-stimulating factor (M-CSF) ([3]; 2.2 μM): −0.07 log10
- Significant log10 reduction compared to nontreated controls: Secreted interleukin 10 (IL-10) [7]: −0.21 log10
